Measured values reported in article PMC7587962, “Evaluation of Cytotoxicity and α-Glucosidase Inhibitory Activity of Amide and Polyamino-Derivatives of Lupane Triterpenoids” (Molecules, 2020).

What was measured:
BT-549 = experiment: NCI-60 SRB screen: breast cancer BT-549; type: cell-based, human; conditions: BT-549
HCT-15 = experiment: NCI-60 SRB screen: colon cancer HCT-15; type: cell-based, human; conditions: HCT-15
K-562 = experiment: NCI-60 SRB screen: leukemia K-562; type: cell-based, human; conditions: K-562
Prostate cancer subpanel = experiment: NCI-60 screen, subpanel Prostate cancer
NCI-H226 = experiment: NCI-60 SRB screen: non-small cell lung cancer NCI-H226; type: cell-based, human; conditions: NCI-H226
MOLT-4 = experiment: NCI-60 SRB screen: leukemia MOLT-4; type: cell-based; conditions: Homo sapiens, 48 h, MOLT-4
MALME-3M = experiment: NCI-60 SRB screen: melanoma MALME-3M; type: cell-based, human; conditions: MALME-3M
MCF7 = experiment: NCI-60 SRB screen: breast cancer MCF7; type: cell-based; conditions: Homo sapiens, 48 h, MCF7
M14 = experiment: NCI-60 SRB screen: melanoma M14; type: cell-based, human; conditions: M14
OVCAR-8 = experiment: NCI-60 SRB screen: ovarian cancer OVCAR-8; type: cell-based, human; conditions: OVCAR-8
CAKI-1 = experiment: NCI-60 SRB screen: renal cancer CAKI-1; type: cell-based, human; conditions: CAKI-1
SF-295 = experiment: NCI-60 SRB screen: CNS cancer SF-295; type: cell-based, human; conditions: SF-295
HCT-116 = experiment: NCI-60 SRB screen: colon cancer HCT-116; type: cell-based; conditions: Homo sapiens, 48 h, HCT-116
Leukemia subpanel = experiment: NCI-60 screen, subpanel Leukemia
SNB-19 = experiment: NCI-60 SRB screen: CNS cancer SNB-19; type: cell-based, human; conditions: SNB-19
MDA-MB-231/ATCC = experiment: NCI-60 SRB screen: breast cancer MDA-MB-231/ATCC; type: cell-based; conditions: Homo sapiens, 48 h
SK-MEL-5 = experiment: NCI-60 SRB screen: melanoma SK-MEL-5; type: cell-based, human; conditions: SK-MEL-5
UACC-257 = experiment: NCI-60 SRB screen: melanoma UACC-257; type: cell-based, human; conditions: UACC-257
NCI/ADR-RES = experiment: NCI-60 SRB screen: ovarian cancer NCI/ADR-RES; type: cell-based, human
HT29 = experiment: NCI-60 SRB screen: colon cancer HT29; type: cell-based; conditions: Homo sapiens, HT29
CCRF-CEM = experiment: NCI-60 SRB screen: leukemia CCRF-CEM; type: cell-based; conditions: Homo sapiens, 48 h
HS 578T = experiment: NCI-60 SRB screen: breast cancer HS 578T; type: cell-based, human; conditions: HS 578T
A549/ATCC = experiment: NCI-60 SRB screen: non-small cell lung cancer A549/ATCC; type: cell-based, human; conditions: A549/ATCC
NCI-H23 = experiment: NCI-60 SRB screen: non-small cell lung cancer NCI-H23; type: cell-based, human; conditions: NCI-H23
OVCAR-3 = experiment: NCI-60 SRB screen: ovarian cancer OVCAR-3; type: cell-based, human; conditions: OVCAR-3
ACHN = experiment: NCI-60 SRB screen: renal cancer ACHN; type: cell-based, human
LOX IMVI = experiment: NCI-60 SRB screen: melanoma LOX IMVI; type: cell-based, human
SN12C = experiment: NCI-60 SRB screen: renal cancer SN12C; type: cell-based, human
U251 = experiment: NCI-60 SRB screen: CNS cancer U251; type: cell-based; conditions: Homo sapiens, U251
Renal Cancer subpanel = experiment: NCI-60 screen, subpanel Renal Cancer
SW-620 = experiment: NCI-60 SRB screen: colon cancer SW-620; type: cell-based; conditions: Homo sapiens, 48 h, SW-620
786-0 = experiment: NCI-60 SRB screen: renal cancer 786-0; type: cell-based, human; conditions: 786-0
EKVX = experiment: NCI-60 SRB screen: non-small cell lung cancer EKVX; type: cell-based, human
UACC-62 = experiment: NCI-60 SRB screen: melanoma UACC-62; type: cell-based, human; conditions: UACC-62
KM12 = experiment: NCI-60 SRB screen: colon cancer KM12; type: cell-based, human; conditions: KM12
MDA-MB-435 = experiment: NCI-60 SRB screen: melanoma MDA-MB-435; type: cell-based, human; conditions: MDA-MB-435
DU-145 = experiment: NCI-60 SRB screen: prostate cancer DU-145; type: cell-based, human; conditions: DU-145
[1] = Homo sapiens, five concentrations, 48 h, SRB, read-out: GI50
[2] = single dose 10 µM, read-out: Percentage Cell Growth
[3] = five concentrations, SRB, read-out: GI50

## CC(=O)OCC12CCC(C(C)C(N)=O)C1C1CCC3C4(C)CCC(OC(C)=O)C(C)(C)C4CCC3(C)C1(C)CC2 [Compound 4, 3β,28-Diacetyloxy-(20R)-29-amino-29-oxolupane]
BT-549; single dose 10 µM
  Percentage Cell Growth: −55.13%
BT-549; [1]
  GI50: 8.17 µM
HCT-15; single dose 10 µM
  Percentage Cell Growth: −44.10%
HCT-15; [1]
  GI50: 4.04 µM
K-562; Homo sapiens, K562, five concentrations, 48 h, SRB, read-out: GI50
  GI50: 4.09 µM
K-562; single dose 10 µM
  Percentage Cell Growth: 3.10%
Prostate cancer subpanel
  MID b, average sensitivity of all cell line of particular subpanel: 6.31 µM
  Selectivity, ratio MID a: MID b: 1.25
NCI-H226; [1]
  GI50: 7.28 µM
NCI-H226; single dose 10 µM
  Percentage Cell Growth: −58.51%
MOLT-4; [2]
  activity at 10 µM: -29.1%
MOLT-4; [3]
  GI50: 3.29 µM
MALME-3M; [1]
  GI50: 10.5 µM
MALME-3M; single dose 10 µM
  Percentage Cell Growth: −88.97%
MCF7; [2]
  activity at 10 µM: -45.6%
MCF7; [3]
  GI50: 3.27 µM
M14; [1]
  GI50: 7.38 µM
M14; single dose 10 µM
  Percentage Cell Growth: −44.25%
OVCAR-8; [1]
  GI50: 54.4 µM
OVCAR-8; single dose 10 µM
  Percentage Cell Growth: −31.70%
CAKI-1; single dose 10 µM
  Percentage Cell Growth: −45.80%
CAKI-1; [1]
  GI50: 3.24 µM
SF-295; [1]
  GI50: 8.57 µM
SF-295; single dose 10 µM
  Percentage Cell Growth: −50.75%
HCT-116; [2]
  activity at 10 µM: -84.2%
HCT-116; [3]
  GI50: 3.57 µM
Leukemia subpanel
  MID b, average sensitivity of all cell line of particular subpanel: 3.55 µM
  Selectivity, ratio MID a: MID b: 2.22
SNB-19; [1]
  GI50: 11.9 µM
SNB-19; single dose 10 µM
  Percentage Cell Growth: −39.95%
MDA-MB-231/ATCC; MDA-MB-231/ATCC, single dose 10 µM, read-out: Percentage Cell Growth
  activity at 10 µM: -88.6%
MDA-MB-231/ATCC; MDA-MB-231, MDA-MB-31/ATCC, five concentrations, SRB, read-out: GI50
  GI50: 11.8 µM
SK-MEL-5; [1]
  GI50: 3.8 µM
SK-MEL-5; single dose 10 µM
  Percentage Cell Growth: −71.94%
UACC-257; [1]
  GI50: 4.83 µM
UACC-257; single dose 10 µM
  Percentage Cell Growth: −46.24%
NCI/ADR-RES; [1]
  GI50: 7.74 µM
NCI/ADR-RES; single dose 10 µM
  Percentage Cell Growth: −57.29%
HT29; HT-29, 48 h, single dose 10 µM, read-out: Percentage Cell Growth
  activity at 10 µM: -77.7%
HT29; HT-29, five concentrations, 48 h, SRB, read-out: GI50
  GI50: 3.73 µM
CCRF-CEM; [2]
  activity at 10 µM: -12.4%
CCRF-CEM; [3]
  GI50: 5.19 µM
HS 578T; single dose 10 µM
  Percentage Cell Growth: −32.99%
HS 578T; [1]
  GI50: 12.4 µM
A549/ATCC; single dose 10 µM
  Percentage Cell Growth: 9.89%
A549/ATCC; [1]
  GI50: 3.97 µM
NCI-H23; [1]
  GI50: 9.42 µM
NCI-H23; single dose 10 µM
  Percentage Cell Growth: −40.35%
OVCAR-3; [1]
  GI50: 3.95 µM
OVCAR-3; single dose 10 µM
  Percentage Cell Growth: −76.19%
ACHN; [1]
  GI50: 5.78 µM
ACHN; single dose 10 µM
  Percentage Cell Growth: −75.68%
LOX IMVI; [1]
  GI50: 10.2 µM
LOX IMVI; single dose 10 µM
  Percentage Cell Growth: −85.52%
SN12C; [1]
  GI50: 5.65 µM
SN12C; single dose 10 µM
  Percentage Cell Growth: −91.61%
U251; U-251, 48 h, single dose 10 µM, read-out: Percentage Cell Growth
  activity at 10 µM: -51.4%
U251; U-251, five concentrations, 48 h, SRB, read-out: GI50
  GI50: 5.1 µM
Renal Cancer subpanel
  MID b, average sensitivity of all cell line of particular subpanel: 8.12 µM
  Selectivity, ratio MID a: MID b: 0.97
SW-620; [2]
  activity at 10 µM: -55.1%
SW-620; [3]
  GI50: 7.7 µM
786-0; single dose 10 µM
  Percentage Cell Growth: −73.99%
786-0; [1]
  GI50: 10.9 µM
EKVX; [1]
  GI50: 9.28 µM
EKVX; single dose 10 µM
  Percentage Cell Growth: −25.21%
UACC-62; [1]
  GI50: 5.46 µM
UACC-62; single dose 10 µM
  Percentage Cell Growth: −82.97%
KM12; [1]
  GI50: 3.86 µM
KM12; single dose 10 µM
  Percentage Cell Growth: −62.05%
MDA-MB-435; [1]
  GI50: 5.23 µM
MDA-MB-435; single dose 10 µM
  Percentage Cell Growth: −63.78%
DU-145; single dose 10 µM
  Percentage Cell Growth: −69.87%
DU-145; [1]
  GI50: 9.94 µM
